“And” between values parts separate entries of the source, which are not always exact repeats. Equal entries are not always repeated.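 48-hour exposure; five concentrations; linearly interpolated endpoints. Abbreviation: GI50, concentration required for 50% inhibition of growth. TGI is the concentration that stops growth completely.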
What was measured:
Test in all cases: DTP human tumour cell line panel, 48 h
786-0 renal = tested on: 786-0 renal
CCRF-CEM leukemia = tested on: CCRF-CEM leukemia
EKVX NSCLC = tested on: EKVX NSCLC
IGROV1 ovarian = tested on: IGROV1 ovarian
MALME-3M melanoma = tested on: MALME-3M melanoma
SK-MEL-2 melanoma = tested on: SK-MEL-2 melanoma
SK-MEL-5 melanoma = tested on: SK-MEL-5 melanoma
SNB-19 CNS = tested on: SNB-19 CNS
UACC-257 melanoma = tested on: UACC-257 melanoma
T-47D breast = tested on: T-47D breast

SMILES	TGI (786-0 renal)	TGI (CCRF-CEM leukemia) [µM]	TGI (EKVX NSCLC) [µM]	TGI (IGROV1 ovarian) [µM]	TGI (MALME-3M melanoma) [µM]	TGI (SK-MEL-2 melanoma)	TGI (SK-MEL-5 melanoma) [µM]	TGI (SNB-19 CNS) [µM]	TGI (UACC-257 melanoma) [µM]	GI50 (786-0 renal)	GI50 (CCRF-CEM leukemia) [µM]	GI50 (EKVX NSCLC) [µM]	GI50 (IGROV1 ovarian)	GI50 (SK-MEL-2 melanoma) [µM]	GI50 (SK-MEL-5 melanoma) [µM]	GI50 (SNB-19 CNS) [µM]	GI50 (T-47D breast)	TGI (T-47D breast) [µM]	GI50 (UACC-257 melanoma)	GI50 (MALME-3M melanoma) [µM]
COC(=O)/C=C1\CCC2[C@@H](C(=O)CC3[C@]2(C)CCC[C@@]3(C)C(=O)OC)C1C (some centres not stated)	> 100 µM	38.1	72.8	57	54.1	39.4 µM	28	> 100	33.9	–	–	–	–	–	–	–	–	–	–	–
Cc1nc2ccccc2c(=O)n1/N=C(\N=Nc1ccccc1)c1ccccc1Cl	99.9 µM	> 100	> 100	> 100	> 100	66.3 µM	> 100	> 100	> 100	–	–	–	–	–	–	–	–	–	–	–
Cc1cc(-c2nc3sc(C)cn3c2/C=N/N=C(N)N)c(C)s1	21.1 µM	5.06	30.6	> 100	–	> 100 µM	3.8	36.2	44.2	8.68 µM	2.49	14.8	28.8 µM	40.8	1.89	18.2	3.56 µM	13.8	22.2 µM	–
COc1cc2c3c(n(CCCN=[N+]=[N-])c(=O)c2cc1OC)-c1ccccc1C3=O	69.2 µM	> 100	> 100	–	–	> 100 µM	9.25	> 100	–	4.68 µM	3.37	> 100	–	> 100	3.17	52.7	> 100 µM	> 100	–	–
COc1cccc(S(=O)(=O)NC2=NCCN2C(=S)SN2CCn3c2nsc3=S)c1	> 100 µM	> 100	> 100	78.5	–	> 100 µM	> 100	> 100	86.2	31.6 µM	32.1	95.7	27.2 µM	68.2	37.9	49.8	23.3 µM	51	31.5 µM	–
C[C@]12Cc3conc3C(O)=C1CC[C@@H]1C2CC[C@@]2(C)C1CC[C@@H]2O (some centres not stated)	> 100 µM	55.5	64.7	> 100	87.2	21.4 µM	29.9	> 100	> 100	–	–	–	–	–	–	–	–	–	–	–
O=C1CCCc2ccc([N+](=O)[O-])c(O)c21	> 100 µM	> 100	> 100	> 100	> 100	> 100 µM	> 100	> 100	> 100	–	–	–	–	–	–	–	–	–	–	–
C=CC12CCCCC1CC(C(=O)OC)=C(O)C2 (configuration not stated)	> 100 µM	> 100	> 100	> 100	–	> 100 µM	> 100	> 100	> 100	–	–	–	–	–	–	–	–	–	–	–
O=S(O)O.O=S(O)O.[Co].[NH2-].[NH2-].[NH2-].[NH2-]	> 100 µM	–	> 100	> 100	> 100	> 100 µM	> 100	> 100	> 100	> 100 µM	–	> 100	> 100 µM	> 100	> 100	> 100	> 100 µM	> 100	> 100 µM	> 100
O=S1Nc2cccc(C(F)(F)F)c2S1 (configuration not stated)	> 100 µM	29.3	> 100	> 100	> 100	88.6 µM	> 100	> 100	> 100	–	–	–	–	–	–	–	–	–	–	–
COc1ccc(C2c3ccc4ccccc4c3Oc3ncn(CCCn4ccnc4)c(=N)c32)cc1OC (configuration not stated)	11 µM	6.9	–	21.8	3.89	–	3.11	26.7	11.4	3.1 µM	2.52	–	6.04 µM	–	1.66	11.2	2.39 µM	6.25	3.07 µM	2.12
N#CC(Sc1ccccc1)C(N)=O (configuration not stated)	> 100 µM	> 100	> 100	> 100	> 100	–	> 100	> 100	> 100	–	–	–	–	–	–	–	–	–	–	–
c1cc[c]([Ge]([O]c2cccc3cccnc23)([c]2ccccc2)[c]2ccccc2)cc1	15.7 µM	–	12.9	10.3	22.4	11.7 µM	–	19.5	14.5	4.7 µM	–	3.42	3.1 µM	2.59	–	7.15	–	–	3.94 µM	10.4
COC(=O)[C@H](Cc1cn(C)cn1)NC(=O)[C@H](CC(C)C)NC(=O)Nc1cc(C(F)(F)F)cc(C(F)(F)F)c1	> 10 µM	–	–	> 10	> 10	> 10 µM	> 10	> 10	–	> 10 µM	–	–	4.63 µM	> 10	> 10	> 10	6.56 µM	> 10	–	> 10
CC(=O)OCC1OC(SC2=N/C(=C\c3ccc(Br)s3)C(=O)N2c2ccccc2)C(OC(C)=O)C(OC(C)=O)C1OC(C)=O (configuration not stated)	55.4 µM and > 100 µM	–	> 100	> 100	> 100	> 100 µM and 48.9 µM	> 100	> 100	> 100	17.8 µM and > 100 µM	–	–	87.4 µM and 41.7 µM	–	–	–	96.5 µM and 27.8 µM	> 100	> 100 µM and 42.5 µM	–
OCC1OC(N2C=C(c3nc4ccccc4s3)C3C=CC=CC32)C(O)C(O)C1O (configuration not stated)	> 50 µM	–	> 50	> 50	–	> 50 µM	30.5	> 50	42.9	17.6 µM	–	18.1	19.8 µM	31.7	12.1	22.1	–	–	14.8 µM	–
O=CN/C=C/c1ccccc1	> 100 µM	> 100	> 100	> 100	> 100	> 100 µM	> 100	> 100	> 100	–	–	–	–	–	–	–	–	–	–	–
O=C(O)c1cnc2c(ccc3[nH]cccc32)c1=O	> 100 µM	> 100	> 100	> 100	> 100	> 100 µM	> 100	> 100	–	–	–	–	–	–	–	–	–	–	–	–
COc1ccc2cc3c4cc(OC)c(OC)cc4ccn3c2c1	> 100 µM	> 100	> 100	> 100	> 100	> 100 µM	> 100	> 100	> 100	–	–	–	–	–	–	–	–	–	–	–

SMILES	TGI (786-0 renal)	TGI (CCRF-CEM leukemia) [µM]	TGI (EKVX NSCLC) [µM]	TGI (IGROV1 ovarian) [µM]	TGI (MALME-3M melanoma) [µM]	TGI (SK-MEL-2 melanoma)	TGI (SK-MEL-5 melanoma) [µM]	TGI (SNB-19 CNS) [µM]	TGI (UACC-257 melanoma) [µM]	GI50 (786-0 renal)	GI50 (CCRF-CEM leukemia) [µM]	GI50 (EKVX NSCLC) [µM]	GI50 (IGROV1 ovarian)	GI50 (SK-MEL-2 melanoma) [µM]	GI50 (SK-MEL-5 melanoma) [µM]	GI50 (SNB-19 CNS) [µM]	GI50 (T-47D breast)	TGI (T-47D breast) [µM]	GI50 (UACC-257 melanoma)	GI50 (MALME-3M melanoma) [µM]
O=CCCn1[nH]c(=O)ccc1=O	> 100 µM	> 100	> 100	> 100	> 100	> 100 µM	> 100	> 100	> 100	–	–	–	–	–	–	–	–	–	–	–
CC1OC(n2cc(F)c(=O)[nH]c2=O)CCC1=O (configuration not stated)	> 100 µM	> 100	–	> 100	> 100	> 100 µM	> 100	> 100	> 100	–	–	–	–	–	–	–	–	–	–	–
CCOc1ccccc1/C=N\N=C(N/N=C/c1ccccc1OCC)N/N=C/c1ccccc1OCC	> 100 µM	> 100	> 100	> 100	> 100	> 100 µM	3.71	> 100	> 100	2.71 µM	3.21	3.04	3.04 µM	2.78	1.69	2.2	–	–	3.12 µM	5.69
CN(C)CC1(C)CC/C(=C\c2ccc(Cl)cc2)C1=O (configuration not stated)	> 100 µM	68.4	–	> 100	> 100	> 100 µM	> 100	65.2	> 100	–	–	–	–	–	–	–	–	–	–	–
O/N=C1/CCCC/C1=C\c1ccc(Cl)c(Cl)c1	> 100 µM	59.7	> 100	> 100	–	–	35.6	91.6	–	–	–	–	–	–	–	–	–	–	–	–
CC[C@]12CN3CCc4c([nH]c5ccccc45)[C@@](C(=O)OC)(c4cc5c(cc4OC)N(C)[C@H]4[C@@](O)(C(=O)OC)[C@H](OC(C)=O)[C@]6(CC)C=CCN7CC[C@]54[C@@H]76)CC(C3)[C@H]1O2 (some centres not stated)	> 100 µM	> 50	> 100	> 100	> 50	–	0.887	> 100	> 100	1.3 µM	0.116	0.256	0.154 µM	0.0434	0.0888	0.214	–	–	0.161 µM	0.0639
NC1=NN(c2ccccc2)C(=O)C1C(=O)C(=O)Nc1ccccc1 (configuration not stated)	> 100 µM	> 100	> 100	> 100	> 100	> 100 µM	> 100	> 100	> 100	–	–	–	–	–	–	–	–	–	–	–
COc1ccc(/C=C/c2onc3c(=O)n(C)nc(-c4ccccc4)c23)cc1	> 100 µM	> 100	> 100	> 100	–	–	> 100	> 100	–	–	–	–	–	–	–	–	–	–	–	–
Cc1[nH]c2ccccc2c1CO	64.8 µM	> 100	70.7	–	–	36.6 µM	36.9	> 100	60.2	24.5 µM	32.8	20.9	–	16.7	18.1	39.3	29.3 µM	> 100	24.1 µM	–
C=C(C)CC(C(=O)O)c1ccc(C)cc1 (configuration not stated)	> 100 µM	–	> 100	> 100	> 100	> 100 µM	> 100	> 100	> 100	–	–	–	–	–	–	–	–	–	–	–
C[C@@H]1CC[C@@]2(C)OC(c3ccccc3)[C@H](CO)N2C1=O (some centres not stated)	> 100 µM	–	> 100	> 100	> 100	> 100 µM	> 100	> 100	> 100	–	–	–	–	–	–	–	–	–	–	–
CC(C)N(C(=O)C12C3C4C5C3C1(C(=O)O)C5C42)C(C)C (configuration not stated)	> 100 µM	> 100	> 100	> 100	> 100	> 100 µM	> 100	> 100	> 100	–	–	–	–	–	–	–	–	–	–	–
CCOC(=O)C1CC(=O)C=C2CCCCC21 (configuration not stated)	> 100 µM	> 100	> 100	> 100	> 100	> 100 µM	> 100	> 100	> 100	–	–	–	–	–	–	–	–	–	–	–
CC(=O)N1c2ccccc2N(C(C)=O)C1c1ccc(C2N(C(C)=O)c3ccccc3N2C(C)=O)[nH]1	> 100 µM	> 100	> 100	> 100	> 100	–	> 100	> 100	> 100	–	–	–	–	–	–	–	–	–	–	–
COc1ccc(O)c(/C=N\Nc2ccccc2)c1	> 100 µM	–	> 100	–	–	> 100 µM	> 100	> 100	> 100	–	–	–	–	–	–	–	–	> 100	–	–
COc1cccc2c1C(=O)c1c(O)c3c(c(O)c1C2=O)C[C@](O)(C(=O)CO)C[C@H]3O[C@@H]1C[C@@H](NC(=O)CCCN(C)C2(c3ccc(F)cc3)CC3CCC2C3)[C@H](O)[C@@H](C)O1 (some centres not stated)	1.57 µM	3.29	2.01	15.8	1.76	2.15 µM	1.57	2.19	1.73	0.801 µM	0.927	0.917	5.72 µM	1.06	0.859	0.9	–	–	0.984 µM	0.914
CCOC(=O)Cc1csc(NC(=O)C(OC(=O)c2ccc(Cl)cc2)c2ccccc2)n1 (configuration not stated)	> 100 µM	–	> 100	> 100	> 100	50.7 µM	36	> 100	> 100	42.8 µM	–	59.6	47 µM	23.8	18	50.5	63.1 µM	> 100	41.3 µM	47.9
C=CCCn1nc(-c2ccccc2)oc1=O	> 100 µM	> 100	> 100	> 100	> 100	> 100 µM	> 100	> 100	> 100	–	–	–	–	–	–	–	–	–	–	–
CCN1/C(=C/C(C)=C/c2sc3ccc4ccccc4c3[n+]2CC)Sc2ccc3ccccc3c21	1.09 µM	–	–	0.404	–	0.586 µM	0.352	–	0.0916	0.268 µM	–	–	0.146 µM	0.193	0.123	–	–	–	0.0115 µM	–

Source: PubChem BioAssay (NCI)
